Laboratory results taken from US20090155387A1, “STABLE PHARMACEUTICAL COMPOSITION COMPRISING BETA-LACTAM ANTIBIOTIC AND ION-CHELATING AGENT” (priority 2006, published 2009).

Assay: Amounts of β-lactam antibiotic, β-lactamase inhibitor and aminoglycoside antibiotic in solution over time (reverse-phase LC/HPLC)
Assay type: physicochemical
Procedure: The amounts of β-lactam antibiotics and β-lactamase inhibitor were determined using C18 reverse-phase LC and UV-VIS detector (Tianjin […] Co., Ltd., analysis method No. HM-K-03). The content of aminoglycoside antibiotics was measured using reverse-phase HPLC and evaporation-light-scattering detector (ELSD detector) (Tianjin […] Co., Ltd., analysis method No. HM-K-08). The amount of antibiotic component at each time point was expressed as a percentage with respect to the amount at the initial time. The relative amount of each antibiotic component in the composition at each time point was expressed as peak area ratio with respect to the corresponding peak area of an external standard.

Compound | amount (percentage of initial amount) (in Example 19 solution, pH 6.75, room temperature, 0 h) [%] | amount (percentage of initial amount) (in Example 19 solution, pH 6.75, room temperature, 1 h) [%] | amount (percentage of initial amount) (in Example 19 solution, pH 6.75, room temperature, 2 h) [%] | amount (percentage of initial amount) (in Example 19 solution, pH 6.75, room temperature, 4 h) [%] | amount (percentage of initial amount) (in Example 19 solution, pH 6.75, room temperature, 6 h) [%] | amount (percentage of initial amount) (in Example 19 solution, pH 6.75, room temperature, 8 h) [%] | amount (percentage of initial amount) (in Example 20 solution (no EDTA), pH 6.75, room temperature, 0 h) [%] | amount (percentage of initial amount) (in Example 20 solution (no EDTA), pH 6.75, room temperature, 1 h) [%] | amount (percentage of initial amount) (in Example 20 solution (no EDTA), pH 6.75, room temperature, 2 h) [%] | amount (percentage of initial amount) (in Example 20 solution (no EDTA), pH 6.75, room temperature, 4 h) [%] | amount (percentage of initial amount) (in Example 20 solution (no EDTA), pH 6.75, room temperature, 6 h) [%] | amount (percentage of initial amount) (in Example 20 solution (no EDTA), pH 6.75, room temperature, 8 h) [%] | amount (percentage of initial amount) (in Example 22 solution (2.5% fructose), pH 6.0, room temperature, 0 h) [%] | amount (percentage of initial amount) (in Example 22 solution (2.5% fructose), pH 6.0, room temperature, 1 h) [%] | amount (percentage of initial amount) (in Example 22 solution (2.5% fructose), pH 6.0, room temperature, 2 h) [%] | amount (percentage of initial amount) (in Example 22 solution (2.5% fructose), pH 6.0, room temperature, 4 h) [%] | amount (percentage of initial amount) (in Example 22 solution (2.5% fructose), pH 6.0, room temperature, 6 h) [%] | amount (percentage of initial amount) (in Example 22 solution (2.5% fructose), pH 6.0, room temperature, 8 h) [%]
NCC[C@H](O)C(=O)N[C@@H]1C[C@H](N)[C@@H](O[C@H]2O[C@H](CN)[C@@H](O)[C@H](O)[C@H]2O)[C@H](O)[C@H]1O[C@H]1O[C@H](CO)[C@@H](O)[C@H](N)[C@H]1O [Amikacin] | 99.91 | 99.50 | 98.88 | 99.45 | 98.56 | 99.36 | 95.98 | 91.49 | 85.05 | 91.00 | 81.93 | 89.98 |  |  |  |  |  | 
CC1(C)S[C@@H]2[C@H](NC(=O)[C@H](NC(=O)N3CCNC3=O)c3ccccc3)C(=O)N2[C@H]1C(=O)O [Azlocillin sodium] |  |  |  |  |  |  |  |  |  |  |  |  | 92.40 | 98.91 | 104.0 | 98.91 | 99.03 | 85.02
